Values of other authors in patent publication US7079956B2, “Crystal structure of antibiotics bound to the 30S ribosome and its use” (Medical Research Council, priority 2000, dated 2006).

Conditions: literature values: Ross et al. 1998 (tetracycline), Cohen et al. 1969 (pactamycin), Cabanas et al. 1978 (hygromycin B)

CN[C@H]1C[C@@H](N)[C@H](O)[C@@H](O[C@@H]2O[C@H](CO)[C@H](O)[C@@H]3OC4(O[C@H]23)O[C@H]([C@@H](N)CO)[C@H](O)[C@H](O)[C@H]4O)[C@@H]1O (stereo partly drawn) [hygromycin B, O-6-amino-6-deoxy-L-glycero-D-galacto-heptopyranosylidene-(12-3)-O-D-talopyranosyl-(15)-2-deoxy-N3-methyl-D-streptamine]
minimum inhibitory concentration: around 6 μM

CC(=O)c1cccc(NC2C(N)C(NC(=O)N(C)C)(C(C)O)C(C)(O)C2(O)COC(=O)c2c(C)cccc2O)c1 (centres unmarked) [pactamycin, 2-hydroxy-6-methylbenzoic acid [5-[(3-acetylphenyl)amino]-4-amino-3-[[(dimethylamino)-carbonyl]amino]-1,2-dihydroxy-3-(1-hydroxy-ethyl)-2-methylcyclopentyl]methyl ester]
minimum inhibitory concentration: 8 to 80 µM
